Consider 104 compounds from PubChem BioAssay AID1996.

≈ marks a conversion by molar mass, not a printed value.

For the data set the following is noted: buffer; pH 7.4; 200.0 µM.
Usually kinetic solubility stands for solubility judged after dilution from a stock solution rather than from solid. The compound `CCC(C)NS(=O)(=O)c1cc2c3c(c1)CCC(=O)N3CCC2` (centres undefined) came in with a solubility (kinetic) above 48.4 µg/mL.

Take `C=CCNC(=S)NCc1ccccc1`: the solubility (kinetic) was above 30.9 µg/mL. To `COc1ccccc1-n1ccnc1SCC(=O)NCc1ccco1` belongs 48.4 µg/mL (≈ 141 µM). Turning to `CC(C)C(NS(=O)(=O)c1ccccc1)C(=O)N1CCCC1` (centres undefined), the solubility (kinetic) is above 46.6 µg/mL. To `CCCOc1ccc(S(=O)(=O)Nc2ccccn2)c2ccccc12` belongs below 0.4 µg/mL; to `Cc1ccc2c(=O)[nH]c(Nc3nc(C)cc(-c4ccccc4)n3)nc2c1`, below 0.1 µg/mL; to `CCOC(=O)C1CCN(S(=O)(=O)c2ccccc2[N+](=O)[O-])CC1`, 44.1 µg/mL (≈ 129 µM). As for `Cc1ccc(S(=O)(=O)N2CCCCCC2)cc1C(=O)NCc1ccccn1`, the kinetic solubility stood at 55.7 µg/mL (≈ 144 µM).

`CC(NC(=O)c1ccc(Cl)cc1)C1CC2CCC1C2` (centres undefined) came in with a kinetic solubility of 1.1 µg/mL (≈ 3.96 µM). The compound `O=Cc1cn(CC(=O)Nc2ccc3c(c2)OCO3)c2ccccc12` gave a solubility (kinetic) of 0.4 µg/mL (≈ 1.24 µM). Then `O=C(CCCc1ccccc1)N1CCN(C2CCCCC2)CC1`, with 46.6 µg/mL (≈ 148 µM). To `Cc1nc2ccc(NC(=S)NCc3ccccc3)cc2nc1C` belongs above 48.4 µg/mL. To `N#Cc1ccc(NCC(=O)Nc2ccc3c(c2)OCCO3)cc1` belongs 29.6 µg/mL (≈ 95.7 µM); to `C1CNC(C23CC4CC(CC(C4)C2)C3)=N1`, above 30.6 µg/mL; to `CC1(C)C2CCC1(C)C(NC(=O)/C=C/c1ccccc1)C2` (centres undefined), 8.9 µg/mL (≈ 31.4 µM).

As for `NC(=O)C1CCN(C(=O)CCSCc2ccccc2)CC1`, the solubility (kinetic) was above 46 µg/mL. Then `Cc1cccc(C(=O)N[C@H](C(=O)Nc2ccc(C)c(S(=O)(=O)N3CCOCC3)c2)C(C)C)c1`, with 5.4 µg/mL (≈ 11.4 µM); and `CCC1CCC2(CC1)NC(=O)N(CC(=O)NCc1ccccc1Cl)C2=O` (centres undefined), with 19.9 µg/mL (≈ 52.7 µM); and `O=C(OCC(=O)N1CCc2ccccc21)c1ccccn1`, with above 42.3 µg/mL. Compound `O=C(O)c1cc(-c2cccs2)nc2ccc(F)cc12` gave a kinetic solubility above 41 µg/mL. To `CCCOc1ccc(C2NC(=O)CCC2[N+](=O)[O-])cc1` (centres undefined) belongs above 41.7 µg/mL. To `O=C1NCCN/C1=C\C(=O)c1cccc(Br)c1` belongs above 44.3 µg/mL; to `Cc1cc(NC(=O)CN2C(=O)NC(C)(c3ccccc3Cl)C2=O)no1` (centres undefined), 28 µg/mL (≈ 77.2 µM); to `CCSc1ccccc1-c1nc(-c2ccncc2)no1`, 5.1 µg/mL (≈ 18 µM). Then `O=C(NC1CC1)c1cccc(S(=O)(=O)N2CCOCC2)c1`, with above 46.6 µg/mL.

In turn, `O=C(O)c1ccccc1C(=O)NC1CCCc2ccccc21` (centres undefined) returned a solubility (kinetic) above 44.3 µg/mL. Then `COc1ccccc1CNC(=O)CSc1n[nH]c(N)n1`, with above 44 µg/mL; and `COc1ccccc1NC(=O)COC(=O)C12CC3CC(CC(Br)(C3)C1)C2`, with 5.5 µg/mL (≈ 13 µM); and `COc1cc2c(cc1/C=C/[N+](=O)[O-])OCO2`, with 6.5 µg/mL (≈ 29.1 µM). To `Nc1ccc2nc(NC(=O)C3CCCCC3)sc2c1` belongs 30.2 µg/mL (≈ 110 µM); to `CNC(=O)c1c(NC(=O)c2cccc(C)c2)sc2c1CCC2`, 0.4 µg/mL (≈ 1.27 µM). `CCCCn1c(N)c(NCc2ccccc2)c(=O)[nH]c1=O` yielded a solubility (kinetic) of 39.1 µg/mL (≈ 136 µM). In turn, `CC(=O)N/C(=N/c1nc(C)cc(C)n1)Nc1ccc(C)cc1C` gave a kinetic solubility of 3.4 µg/mL (≈ 10.9 µM). Then `CCc1nc2cc3sc(CC)nc3cc2s1`, with 0.6 µg/mL (≈ 2.42 µM); and `COc1cnc(-c2ccccc2)nc1Oc1ccc(Cl)cc1C`, with below 0.3 µg/mL. To `CCOC(=O)c1csc(NC(=O)c2ccc(C#N)cc2)n1` belongs 1 µg/mL (≈ 3.32 µM); to `CCC[C@H](N[C@@H](CCC)[C@H](O)c1ccccc1)[C@H](O)c1ccccc1`, 5.4 µg/mL (≈ 15.8 µM). To `CC(C)NC(=O)c1ccc(-n2c(=S)[nH]c3ccccc3c2=O)cc1` belongs 3.9 µg/mL (≈ 11.5 µM). `Nc1cc(N2CCOCC2)c(Cl)cc1[N+](=O)[O-]`: the solubility (kinetic) was 31.4 µg/mL (≈ 122 µM). `Nc1nc2ccccc2cc1-c1cccs1`: the kinetic solubility stood at 27.7 µg/mL (≈ 122 µM). This solubility kinetic and that of the compound before are within 1.5-fold of each other. To `CCC1CCC2(CC1)SCC(=O)N2c1ccccc1` (centres undefined) belongs 5.7 µg/mL (≈ 20.7 µM); to `CNC(=O)CSc1nc2ccccc2c(=O)n1C1CCCCC1`, above 49.7 µg/mL. To `CC(=O)c1cccc(NC(=O)CCCSc2ccccc2)c1` belongs 2.9 µg/mL (≈ 9.25 µM). Then `Cc1ccc(Oc2ccc(C(F)(F)F)cc2[N+](=O)[O-])c([N+](=O)[O-])n1`, with 7.2 µg/mL (≈ 21 µM); and `Cc1nc2ccc(NS(=O)(=O)c3ccc(F)c(F)c3F)cc2s1`, with 50.7 µg/mL (≈ 141 µM).

With `N#C/C(=C\c1ccc2c(c1)OCCO2)C(=O)Nc1nccs1`, the solubility (kinetic) came to 28.8 µg/mL (≈ 91.9 µM). This solubility kinetic is about 1.8-fold lower than that of the compound before. As for `O=C(Nc1ccon1)c1ccc(S(=O)(=O)N2CCOCC2)cc1`, the solubility (kinetic) was 47.4 µg/mL (≈ 141 µM). Then `Cc1cc(S(=O)(=O)Nc2noc3ccccc23)ccc1F`, with 41.2 µg/mL (≈ 135 µM). In turn, `CCS(=O)(=O)N1CCC(C(=O)Oc2ccc(C)c(C)c2)CC1` had a kinetic solubility of 38.5 µg/mL (≈ 118 µM). Then `Cc1cccc(OCC(=O)NC2CCCCCC2)c1C`, with below 0.6 µg/mL; and `Cc1ccc(C(=O)NCCOc2ccc(Cl)cc2)cc1`, with 3.4 µg/mL (≈ 11.7 µM). To `Cc1cccnc1NC(=O)CNC(=O)C1CCCCC1` belongs above 41.3 µg/mL; to `CC(C)C1Nc2ccc(C(=O)O)cc2C2C=CCC21` (centres undefined), above 38.6 µg/mL.

In turn, `COc1ccc(S(=O)(=O)Nc2noc3ccccc23)cc1OC` showed a kinetic solubility above 50.2 µg/mL. Then `CN(C)CC(c1ccccc1)c1ccccc1.Cl`, with 34.3 µg/mL; and `Cc1ccc(NC(=O)C2CCN(C(=O)c3ccco3)CC2)cc1`, with above 46.9 µg/mL; and `CCOc1ccc(C(=O)Nc2cccc3ncccc23)cc1Cl`, with 1.1 µg/mL (≈ 3.37 µM). Then `O=C(Cc1ccsc1)Nc1ccccc1F`, with above 35.3 µg/mL; and `Cc1cccc(NC(=O)Cn2nc(-c3ccco3)ccc2=O)c1C`, with above 48.5 µg/mL. To `O=C(NC(=S)NCCCN1CCOCC1)c1ccco1` belongs above 44.6 µg/mL. As to `C#CCN1CCN(c2cccc(C(F)(F)F)c2)CC1`, the kinetic solubility came to 9.8 µg/mL (≈ 36.5 µM).

Compound `CC(NC(=O)c1cc2ccccc2oc1=O)c1ccc(O)cc1` (centres undefined) displayed a kinetic solubility of 27.3 µg/mL (≈ 88.3 µM).

The compound `Cc1ccc(NC(=O)N[C@H](C(=O)O)C(C)C)c(C)c1` displayed a kinetic solubility above 39.6 µg/mL. To `O=C(Nc1cccc(Cl)c1)Nc1ccc2nccnc2c1` belongs 1.7 µg/mL (≈ 5.69 µM); to `Cc1sc2ncnc(NCC(O)c3ccccc3)c2c1C` (centres undefined), 6.6 µg/mL (≈ 22 µM); to `Cc1cn2c(=O)c(C(=O)N3CCN(c4ccccc4)CC3)cnc2s1`, above 53.2 µg/mL.

In turn, `Nc1c2c(nc3sc4c(c13)CCCC4)-c1ccccc1CC2` returned a kinetic solubility below 0.3 µg/mL. Then `COc1ccccc1C1(O)C(=O)Nc2ccccc21` (centres undefined), with above 38.3 µg/mL; and `CCOc1ccc(/C=C\c2nc(O)c([N+](=O)[O-])c(=O)[nH]2)cc1OCC`, with 29 µg/mL (≈ 83.5 µM); and `O=C(CCNC(=O)c1ccccc1Cl)Nc1nc2ccccc2[nH]1`, with 4.9 µg/mL (≈ 14.3 µM). To `CSc1c(C#N)c(N)nc2sc(C(=O)c3ccccc3)c(N)c12` belongs 3.1 µg/mL (≈ 9.11 µM). To `COc1cc(Oc2ccccc2)nc(N)n1` belongs above 32.6 µg/mL.

In turn, `Cc1csc(SC(C)C(=O)NCC2CCCO2)n1` (centres undefined) showed a solubility (kinetic) above 43 µg/mL. Then `Cc1csc(NC(=O)CCNC(=O)c2ccccc2Cl)n1`, with 43.9 µg/mL (≈ 136 µM). `N#Cc1cccc(NC(=O)COC(=O)c2cc(S(=O)(=O)Nc3ccccc3Cl)ccc2O)c1` had a solubility (kinetic) of 40.4 µg/mL (≈ 83.1 µM). Then `CC(C)Oc1cccc(OCCN2C(=O)c3ccccc3C2=O)c1`, with 13.8 µg/mL (≈ 42.4 µM); and `O=Cc1c(N2CCSCC2)nc2ccccn2c1=O`, with above 41.3 µg/mL; and `CC(=O)c1ccc(N=C2NC(=O)C(CO)(CO)S2)cc1`, with 43.2 µg/mL (≈ 147 µM). Then `CN(CC(=O)Nc1cccc(F)c1)C(=O)COc1ccc2c(c1)CCC2`, with 1.9 µg/mL (≈ 5.33 µM); and `CCC1CCc2sc(C(=O)N3CCCN(C)CC3)cc2C1` (centres undefined), with 37.5 µg/mL (≈ 122 µM); and `c1ccc(-c2nc(-c3cccnc3)cs2)cc1`, with 21.4 µg/mL (≈ 89.8 µM). `CC(C)c1ccc(NC(=O)Cn2c(=O)oc3cccnc32)cc1` yielded a solubility (kinetic) of 7.7 µg/mL (≈ 24.7 µM). To `CC(C)(C)C(=O)Cn1c(NCCCl)nc2ccccc21.Cl` belongs above 49.5 µg/mL.

On to `Cc1ccc(NC(=O)C2CC2c2ccccc2)c([N+](=O)[O-])c1` (centres undefined), for which the solubility (kinetic) is 3.5 µg/mL (≈ 11.8 µM).

The compound `CSc1nccc(Oc2ccccc2Cl)n1` yielded a kinetic solubility of 6.8 µg/mL (≈ 26.9 µM). Compared with the last compound, the solubility kinetic is about 1.9-fold higher. Then `Cc1ccc(NC(=O)CN2C(=O)NC3(CCCc4ccccc43)C2=O)c([N+](=O)[O-])c1` (centres undefined), with 36.5 µg/mL (≈ 89.4 µM); and `CCOC(=O)C(NC(C)=O)(NC(C)C)C(F)(F)F` (centres undefined), with 2.2 µg/mL (≈ 8.14 µM). `COc1ccc2c(c1)c(C(=O)O)c(C)n2-c1ccccc1`: the kinetic solubility amounted to 38.4 µg/mL (≈ 137 µM). Compound `O=C1COc2ccc(S(=O)(=O)N3CCCCCC3)cc2N1` yielded a kinetic solubility above 46.6 µg/mL. Then `S=C(NCCc1c[nH]c2ccccc12)NC1CCCCC1`, with 2.8 µg/mL (≈ 9.29 µM); and `CC(NC(=O)c1cccc(S(=O)(=O)N(C)C)c1)C1CC2CCC1C2` (centres undefined), with 15.5 µg/mL (≈ 44.2 µM).

On to `C=CCn1c(=S)sc2c(=O)[nH]c(C)nc21`, for which the solubility (kinetic) is above 35.9 µg/mL.

Turning to `O=C(NC(=S)NC1C2CC3CC(C2)CC1C3)c1ccccc1` (centres undefined), the solubility (kinetic) was below 0.3 µg/mL. Compound `CCCOC(=O)CC1C(=O)NCCN1C(=O)OC(C)(C)C` (centres undefined) had a kinetic solubility above 45.1 µg/mL. Then `O=[N+]([O-])c1cnc(Nc2ccc(Cl)cn2)c([N+](=O)[O-])c1`, with 1.8 µg/mL (≈ 6.09 µM); and `COc1ccccc1CNC(=O)c1ccc(Cl)c(S(=O)(=O)N2CCCC2)c1`, with 17.9 µg/mL (≈ 43.8 µM); and `CC1CCc2c(sc(NC(=O)/C=C/c3cccs3)c2C(=O)O)C1` (centres undefined), with above 52.1 µg/mL. Consider `OC(COc1ccccc1)CN1CCCC1` (centres undefined), for which the solubility (kinetic) is above 33.2 µg/mL. The compound `CNc1ccc(Cl)nn1` came in with a kinetic solubility above 21.5 µg/mL. Turning to `CCOC(=O)Cc1csc(NC(=O)c2cccc(Cl)c2)n1`, the kinetic solubility is 6.9 µg/mL (≈ 21.2 µM).

`Cc1ccc(C)c(NC(=O)CN(C)C(=O)/C=C/c2ccco2)c1` came in with a solubility (kinetic) above 46.9 µg/mL. To `COc1ccc(Br)cc1CN(C)C(=O)c1ccncc1` belongs above 50.3 µg/mL.

As to `O=C(CN1CCCCCC1)NCC1CCCO1.O=C(O)C(=O)O` (centres undefined), the solubility (kinetic) is above 49.6 µg/mL.

Consider `Cn1cc(C(=O)C(=O)NC2CCCCC2)c2ccccc21`, for which the solubility (kinetic) was found to be 31.8 µg/mL (≈ 112 µM).
